Tested on: broomweed (Sida acuta, SIDAC)
Test: Field trial, post-emergence foliar application, weed control rating 0-100%
Assay type: in vivo
Settings: for Picloram-Potassium Mean % weed control: 180 g ae/ha alone; for Aminocyclopyrachlor Mean % weed control: 150 g ae/ha alone
Text: The (a) aminocyclopyrachloror an agriculturally acceptable salt or ester thereof is mixed with or applied in combination with (b) picloram or an agriculturally acceptable salt or ester thereof in an amount sufficient to induce a synergistic herbicidal effect. […] As described in the Herbicide Handbook of the Weed Science Society of America, Ninth Edition, 2007, p. 429, “‘synergism’ [is] an interaction of two or more factors such that the effect when combined is greater than the predicted effect based on the response to each factor applied separately.” Synergistic in the herbicide context can mean that the use of (a) and (b) as defined above results in an increased weed control effect compared to the weed control effects that are possible with the use of (a) or (b) alone. In some embodiments, the damage or injury to the undesired vegetation caused by the compositions and methods disclosed herein is evaluated using a scale from 0% to 100%, when compared with the untreated control vegetation, wherein 0% indicates no damage to the undesired vegetation and 100% indicates complete destruction of the undesired vegetation. […] 22 (1967)
Field trials were conducted with applications made to established grassland with naturally occurring weed populations. The target plants were treated with postemergence foliar applications when they were at the beginning of the flowering stage and 30 centimeters (11.8 inches) tall. All treatments were applied using a randomized complete block trial design, with four replications per treatment.
Treatments consisted of aminocyclopyrachlor in acid form and picloram-potassium, each in water and applied alone or in combination. Spray solutions were prepared using an appropriate amount of dilution to form a 2.0-liter (L) aqueous spray solution with active ingredients in single and two-way combinations. Formulated compounds were applied to the plant material with a backpack sprayer equipped with 8003 nozzles calibrated to deliver 400 liters per hectare (L/ha) at a spray height of 18-20 in (45-51 cm) above average plant canopy.
The treated plant was broomweed (Sida acuta, SIDAC). The treated plots and control plots were rated blind at various intervals after application. Ratings were based on a scale of 0-100%, as discussed above, wherein 0% indicates no damage to the undesired vegetation and 100% indicates complete destruction of the undesired vegetation
Colby's equation was used to determine the herbicidal effects expected from the mixtures, as described above. The results were measured at 59 days, 75 days, and 88 days after the first application of the compositions. […] The herbicide tank mix combinations tested, application rates and ratios employed, plant species tested, and results are given below.

SMILES	Picloram-Potassium Mean % weed control (59 days after application)	Picloram-Potassium Mean % weed control (75 days after application)	Picloram-Potassium Mean % weed control (88 days after application)	Aminocyclopyrachlor Mean % weed control (59 days after application)	Aminocyclopyrachlor Mean % weed control (75 days after application)	Aminocyclopyrachlor Mean % weed control (88 days after application)
Nc1c(Cl)c(Cl)nc(C(=O)O)c1Cl [Picloram-Potassium, 4-amino-3,5,6-trichloro-2-pyridinecarboxylic acid]	6.3%	3.8%	5.5%			
Nc1nc(C2CC2)nc(C(=O)O)c1Cl [Aminocyclopyrachlor, 6-amino-5-chloro-2-cyclopropylpyrimidine-4-carboxylic acid]				42.5%	36.3%	41.3%

— patent publication US9426991B2, “Synergistic weed control from applications of aminocyclopyrachlor and picloram” (Dow AgroSciences LLC, priority 2012, dated 2016)
